# Data from US4100153A, “(D-Trp^5)-somatostatin and analogues thereof” (American Home Products Corporation, priority 1977, dated 1978).
# Bridge positions count the residues as written; N and C are the ends. Square brackets hold non-standard residues; d marks the D form. Peptide text beside a SMILES is read from it.
# Key:
# Format in all cases: in vivo
# growth hormone = experiment: Arginine-stimulated hormone secretion in Nembutal-treated rats, radioimmunoassay of growth hormone
# Description: (§1) Albino male rats were administered Nembutal intraperitoneally at a dose of 50 milligrams per kilogram. Fifteen minutes later a subcutaneous injection of the test compound or physiological saline was administered. Ten minutes later 0.5 milliliters of arginine (300 milligrams per milliliter, pH 7.2) is injected into the heart. Five minutes after receipt of the arginine the rats are decapitated and blood is collected into trasylol-EDTA. An appropriate aliquot was assayed for growth hormone, insulin, and glucagon by radioimmunoassay.
# insulin = experiment: Arginine-stimulated hormone secretion in Nembutal-treated rats, radioimmunoassay of insulin
# Description: as §1
# glucagon = experiment: Arginine-stimulated hormone secretion in Nembutal-treated rats, radioimmunoassay of glucagon
# Description: as §1
# growth hormone secretion = experiment: Effect on growth hormone secretion over time in rats treated with Nembutal, plasma GH by radioimmunoassay; conditions: for Growth Hormone: dose 1,000 μg/kg
# Description: (D-Trp^5, D-Trp^8)-Somatostatin was also tested for its effect on growth hormone secretion in rats treated with Nembutal after 1, 2, 4, 5, 6, and 8 hours. Blood samples were obtained by cardiac puncture and plasma separated for radio immunoassay of GH concentration.
smiles,measurement,setting,value
"C[C@H](N)C(=O)NCC(=O)N[C@H]1CSSC[C@@H](C(=O)O)NC(=O)[C@H](CO)NC(=O)[C@H]([C@@H](C)O)NC(=O)[C@H](Cc2ccccc2)NC(=O)[C@H]([C@@H](C)O)NC(=O)[C@H](CCCCN)NC(=O)[C@@H](Cc2c[nH]c3ccccc23)NC(=O)[C@H](Cc2ccccc2)NC(=O)[C@H](Cc2ccccc2)NC(=O)[C@@H](Cc2c[nH]c3ccccc23)NC(=O)[C@H](CCCCN)NC1=O [(D-Trp^5, D-Trp^8)-Somatostatin, L-alanylglycyl-L-cysteinyl-L-lysyl-D-tryptophyl-L-phenylalanyl-L-phenylalanyl-D-tryptophyl-L-lysyl-L-threonyl-L-phenylalanyl-L-threonyl-L-seryl-L-cysteine cyclic (3→14)-disulfide, triacetate] (H-AGCK[dW]FF[dW]KTFTSC-OH; disulfide 3-14)",GH,"growth hormone; dose 10 μg/kg subcutaneous, control 133 ± 32",40 ± 6 ng/mL
same,GH,"growth hormone; dose 100 μg/kg subcutaneous, control 133 ± 32",25 ± 5 ng/mL
same,GH,"growth hormone; dose 1,000 μg/kg subcutaneous, blood 15 min after dosing, 5 min after arginine, control 259 ± 29",52 ± 5 ng/mL
same,Effect on secretion of growth hormone (in words),growth hormone; dose of 10 or 100 μg/kg,effective agent for reducing secretion of growth hormone
same,Effect on release of growth hormone (in words),growth hormone; higher dose (1 mg/kg),inhibited release of growth hormone
same,Insulin,"insulin; dose 10 μg/kg subcutaneous, control 348 ± 36",183 ± 12 μU/ml
same,Insulin,"insulin; dose 100 μg/kg subcutaneous, control 348 ± 36",105 ± 9 μU/ml
same,Insulin,"insulin; dose 1,000 μg/kg subcutaneous, control 314 ± 46",33 ± 6 μU/ml
same,Effect on secretion of insulin (in words),insulin; dose of 10 or 100 μg/kg,effective agent for reducing secretion of growth hormone and insulin
same,Effect on release of insulin (in words),insulin; higher dose (1 mg/kg),"inhibited release of growth hormone, insulin"
same,Glucagon,"glucagon; dose 10 μg/kg subcutaneous, control 44 ± 8, marked * not significant",36 ± 5 pg/mL
same,Glucagon,"glucagon; dose 100 μg/kg subcutaneous, control 44 ± 8, marked * not significant",31 ± 5 pg/mL
same,Glucagon,"glucagon; dose 1,000 μg/kg subcutaneous, control 46 ± 7",17 ± 4 pg/mL
same,Effect on glucagon levels (in words),glucagon; dose of 10 or 100 μg/kg,without materially affecting glucagon levels
same,Effect on release of glucagon (in words),glucagon; higher dose (1 mg/kg),"inhibited release of growth hormone, insulin, and glucagon"
same,Duration of inhibition of growth-hormone release (in words),"growth hormone secretion; 1,000 μg/kg, 1 to 8 hours",long-acting inhibition of growth-hormone release
same,Growth Hormone,"growth hormone secretion; time 1 hr, control 61 ± 14",5 ± 2 ng/mL
same,Growth Hormone,"growth hormone secretion; time 2 hrs, control 227 ± 44",16 ± 2 ng/mL
same,Growth Hormone,"growth hormone secretion; time 4 hrs, control 84 ± 13",32 ± 10 ng/mL
same,Growth Hormone,"growth hormone secretion; time 5 hrs, control 73 ± 11",16 ± 3 ng/mL
same,Growth Hormone,"growth hormone secretion; time 6 hrs, control 156 ± 42",22 ± 2 ng/mL
same,Growth Hormone,"growth hormone secretion; time 8 hrs, control 55 ± 22",31 ± 11 ng/mL
